According to US8969336B2, “Diamino heterocyclic carboxamide compound” (Astellas Pharma Inc., priority 2009, dated 2015):

Legend:
[1] = tested on: human non-small cell lung cancers cell line NCI-H2228 cells; assay: Antitumor test (in vivo) on NCI-H2228 cells; conditions: oral administration, NOD/SCID mice, Student's t-test
Text: The antitumor effects on EML4-ALK fusion protein-dependent cells can also be confirmed by use of human non-small cell lung cancers cell line NCI-H2228 cells (cells derived from EML4-ALK fusion polynucleotide-positive lung cancer patients (EML4-ALK fusion protein v3-dependent cells)) in place of the EML4-ALK fusion protein v1 expressing 3T3 cells of Test Example 3, as shown below.
3×10^6 cells of NCI-H2228 cells suspended in 50% Matrigel (Invitrogen) were inoculated subcutaneously by injection to the back of 5 weeks old male NOD/SCID mice (Charles River Japan, Inc.). After 3 weeks of the inoculation, the administration of test compounds was initiated. The test was conducted in the solvent group and test compound groups, 6 animals per group. The test compounds were each dissolved in a solvent composed of 10% 1-methyl-2-pyrrolidinone (SIGMA-ALDRICH Inc.)/90% polyethylene glycol 300 (Fluka Inc.) and administered orally at a dose of 1 mg/kg. Administrations were performed once a day for 14 days, and body weight and tumor size were measured every other day. Tumor volume was calculated using the following formula. [Tumor volume(mm^3)]=[Tumor major axis(mm)]×[tumor minor axis(mm)]^2×0.5

[2] = tested on: BA/F3 cells expressing EML4-ALK fusion protein v1; assay: Growth inhibitory activity against EML4-ALK fusion protein-dependent cells; format: cell-based, mouse; conditions: growth of EML4-ALK fusion protein v1-expressing BA/F3 cells, cultured 2 days
Description: EML4-ALK fusion protein v1-expressing BA/F3 cells can grow in the absence of IL-3. In other words, they are cells that EML4-ALK fusion protein v1-dependently grow.
In a 96-well plate (Iwaki), BA/F3 cells expressing EML4-ALK fusion protein v1 were seeded at 500 cells per well in RPMI1640 medium (Invitrogen) containing 10% fetal bovine serum, followed by addition of a test compound (final concentration: 10 μM to 0.1 nM). As a negative control, DMSO used as a solvent of the test compound was added. Then, the cells were cultured under 5% CO2 at 37° C. for 2 days. A cell counting reagent (AlmarBlue; Biosource) was added, and the cells were cultured for 150 minutes, followed by measurement of fluorescence intensity with a […] (Safire; Tecan) in accordance with instructions attached to the reagent.

[3] = target: EML4-ALK fusion protein v1 (Homo sapiens (Human), UniProt Q9UM73); assay: Inhibitory activity against the kinase activity of EML4-ALK fusion protein (HTRF KinEASE-TK); format: biochemical; conditions: ATP 100 μM, reaction 1 hour
Text: A recombinant retrovirus was created from expression plasmid FLAG-EML4-ALKv1/pMX-iresCD8 in which cDNA for EML4-ALK fusion protein v1 was integrated, and injected into mouse lymphoid cell line BA/F3 cells. Using a magnetic bead reagent for cell separation and a purification column (anti-CD8 monoclonal antibody immobilized on magnetic beads and a MiniMACS purification column; both are products of Miltenyi Biotec Inc.), cell surface CD8-expressing cells were purified to establish EML4-ALK fusion protein v1-expressing BA/F3 cells. From the cells, EML4-ALK fusion protein v1 was purified and subjected to kinase activity evaluation. EML4-ALK fusion protein v1 was investigated for its phosphorylation activity toward a peptide substrate by using a kinase activity detection kit (HTRF KinEASE-TK; Cisbio Inc.). […] The ATP concentration used was 100 μM.

[4] = tested on: EML4-ALK fusion protein v1 expressing 3T3 cells; assay: Antitumor test (in vivo) on EML4-ALK fusion protein v1 expressing 3T3 cells; conditions: oral 10 mg/kg once a day for 5 days, Balb/c nude mice, EML4-ALK v1 3T3 tumor; for rate of regression (tumor volume): values marked (regression)
Text: Expression plasmid EML4-ALKv1/pMXS in which cDNA for EML4-ALK fusion protein v1 was integrated was trasfected into 3T3 fibroblast cells by the phosphate calcium method to thereby establish EML4-ALK fusion protein v1 expressing 3T3 cells. 3×10^6 cells of EML4-ALK fusion protein v1 expressing 3T3 cells suspended in PBS were inoculated subcutaneously by injection to the back of 5 weeks old male Balb/c nude mice (Charles River Japan, Inc.). After 7 days of the inoculation, the administration of test compound was initiated. The test was conducted in the solvent group and the compound group, 4 animals per group. The test compound was suspended in a solvent composed of 0.5% methylcellulose and administered orally at a dose of 10 mg/kg. Administrations were performed once a day for 5 days, and body weight and tumor size were measured every other day. Tumor volume was calculated using the following formula. [Tumor volume(mm^3)]=[Tumor major axis(mm)]×[tumor minor axis(mm)]^2×0.5
When regression of tumor volume is induced from the day of starting administration, the tumor volume on the day of starting administration and the state in which the tumor disappeared were assumed to be 0% regression and 100% regression, respectively, and the rate of regression of the test compound was calculated.

Chain of EML4-ALK fusion protein v1 (Q9UM73 other isoform, or with tags, fused parts or gaps): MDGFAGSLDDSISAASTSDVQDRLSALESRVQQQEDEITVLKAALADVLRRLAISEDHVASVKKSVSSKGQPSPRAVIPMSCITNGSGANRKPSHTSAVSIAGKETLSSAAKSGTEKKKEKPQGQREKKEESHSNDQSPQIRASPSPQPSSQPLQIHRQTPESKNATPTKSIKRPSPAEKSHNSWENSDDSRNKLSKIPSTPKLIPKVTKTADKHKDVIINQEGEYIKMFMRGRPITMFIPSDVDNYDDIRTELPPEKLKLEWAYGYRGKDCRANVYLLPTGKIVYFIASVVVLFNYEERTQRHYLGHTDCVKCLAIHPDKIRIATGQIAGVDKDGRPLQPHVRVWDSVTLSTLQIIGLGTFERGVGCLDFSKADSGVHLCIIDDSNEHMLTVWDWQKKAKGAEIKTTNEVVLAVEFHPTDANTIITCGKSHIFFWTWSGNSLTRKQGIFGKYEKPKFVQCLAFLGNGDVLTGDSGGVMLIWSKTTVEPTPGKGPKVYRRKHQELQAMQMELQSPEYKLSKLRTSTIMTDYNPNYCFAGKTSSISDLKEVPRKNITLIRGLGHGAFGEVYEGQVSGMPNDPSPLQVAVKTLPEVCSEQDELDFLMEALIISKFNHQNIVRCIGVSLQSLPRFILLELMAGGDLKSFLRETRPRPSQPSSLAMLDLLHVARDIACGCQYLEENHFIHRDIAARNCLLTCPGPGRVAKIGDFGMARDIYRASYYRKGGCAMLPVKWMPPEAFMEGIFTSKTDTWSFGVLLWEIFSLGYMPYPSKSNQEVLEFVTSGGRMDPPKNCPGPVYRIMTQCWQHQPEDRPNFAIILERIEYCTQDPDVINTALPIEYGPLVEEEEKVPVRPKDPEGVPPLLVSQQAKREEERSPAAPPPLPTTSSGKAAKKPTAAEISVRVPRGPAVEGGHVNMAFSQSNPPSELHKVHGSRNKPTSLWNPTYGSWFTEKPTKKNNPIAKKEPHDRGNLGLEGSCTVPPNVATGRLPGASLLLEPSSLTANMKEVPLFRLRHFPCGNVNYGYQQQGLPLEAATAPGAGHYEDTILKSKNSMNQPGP

NC(=O)c1cnc(N[C@@H]2CCCC[C@@H]2N)nc1Nc1ccc(-c2ccc(N3CCOCC3)cc2)cc1 (racemic) [Compound X, rac-2-{[(1R,2S)-2-aminocyclohexyl]amino}-4-{[4′-(morpholin-4-yl)biphenyl-4-yl]amino}pyrimidine-5-carboxamide, reference compound]
growth inhibition against NCI-H2228 cells (tumor) compared with the solvent group [1]: no significant growth inhibition
IC50 ([2]; Mus musculus, BaF3, 48 h): 821 nM
IC50 [3]: 220 nM

CCc1nc(C(N)=O)c(Nc2cccc(S(C)(=O)=O)c2)nc1N[C@H]1CC[C@H](O)CC1 [Example 86]
IC50 ([2]; Mus musculus, BaF3, 48 h): 68 nM
IC50 [3]: 17 nM

CCc1nc(C(N)=O)c(Nc2ccc(N3CCC(N4CCN(C)CC4)CC3)cc2OC)nc1N[C@H]1CC[C@H](O)CC1 [Example 284]
IC50 ([2]; Mus musculus, BaF3, 48 h): 85 nM
IC50 [3]: 8.9 nM

CCc1nc(C(N)=O)c(Nc2ccc(N3CCN(C)CC3)cc2)nc1N[C@H]1CC[C@H](O)CC1 [Example 325]
IC50 ([2]; Mus musculus, BaF3, 48 h): 20 nM
IC50 [3]: 5.3 nM

CCc1nc(C(N)=O)c(Nc2ccc3cnn(C)c3c2)nc1N[C@H]1CC[C@H](O)CC1 [Example 328]
IC50 ([2]; Mus musculus, BaF3, 48 h): 76 nM

CCc1nc(C(N)=O)c(Nc2ccc(N3CCC(N4CCN(C)CC4)CC3)c(OC)c2)nc1N[C@H]1CC[C@H](O)CC1 [Example 340]
IC50 ([2]; Mus musculus, BaF3, 48 h): 9.5 nM
IC50 [3]: 0.37 nM

CCc1nc(C(N)=O)c(Nc2ccc(N3CCC(N4CCN(C)CC4)CC3)cc2)nc1N[C@H]1CC[C@H](O)CC1 [Example 341]
IC50 ([2]; Mus musculus, BaF3, 48 h): 11 nM
IC50 [3]: 2.8 nM

CC(C)c1nc(C(N)=O)c(Nc2ccc(N3CCN(C)CC3)cc2)nc1N[C@H]1CC[C@H](O)CC1 [Example 343, 5-[(trans-4-hydroxycyclohexyl)amino]-6-isopropyl-3-{[4-(4-methylpiperazin-1-yl)phenyl]amino}pyrazine-2-carboxamide]
IC50 ([2]; Mus musculus, BaF3, 48 h): 11 nM
IC50 [3]: 2.1 nM

CCc1nc(C(N)=O)c(Nc2ccc(N3CCN(C)CC3)c(C(F)(F)F)c2)nc1N[C@H]1CC[C@H](O)CC1 [Example 354]
IC50 ([2]; Mus musculus, BaF3, 48 h): 8.6 nM
IC50 [3]: 0.77 nM

CCc1nc(C(N)=O)c(Nc2ccc(N3CCN(C)CC3)c(OC)c2)nc1N[C@H]1CC[C@H](O)CC1 [Example 355]
IC50 ([2]; Mus musculus, BaF3, 48 h): 9.2 nM
IC50 [3]: 0.33 nM

CCc1nc(C(N)=O)c(Nc2ccc(N3CCC(N4CCN(C)CC4)CC3)c(C(F)(F)F)c2)nc1N[C@H]1CC[C@H](O)CC1 [Example 370]
inhibition rate (tumor volume) [4]: 81%
IC50 ([2]; Mus musculus, BaF3, 48 h): 4.9 nM
IC50 [3]: 0.65 nM

CCc1nc(C(N)=O)c(Nc2ccc(N3CCN(C)CC3)c(C)c2)nc1N[C@H]1CC[C@H](O)CC1 [Example 377]
IC50 ([2]; Mus musculus, BaF3, 48 h): 6.9 nM
IC50 [3]: 0.24 nM

CCc1nc(C(N)=O)c(Nc2ccc(N3CCC(N4CCN(C)CC4)CC3)c(C)c2)nc1N[C@H]1CC[C@H](O)CC1 [Example 378]
inhibition rate (tumor volume) [4]: 92%
IC50 ([2]; Mus musculus, BaF3, 48 h): 6.1 nM
IC50 [3]: 0.26 nM

CCc1nc(C(N)=O)c(Nc2ccc(OC)c(N3CCN(C)CC3)c2)nc1N[C@H]1CC[C@H](O)CC1 [Example 383]
IC50 ([2]; Mus musculus, BaF3, 48 h): 5.9 nM
IC50 [3]: 0.23 nM

CC(C)c1nc(C(N)=O)c(Nc2ccc(N3CCC(N4CCN(C)CC4)CC3)c(C(F)(F)F)c2)nc1N[C@H]1CC[C@H](O)CC1 [Example 388]
IC50 ([2]; Mus musculus, BaF3, 48 h): 4.1 nM
IC50 [3]: 0.17 nM

CCc1nc(C(N)=O)c(Nc2ccc(N3CCN(C)CC3)c(C)c2)nc1N[C@H]1CC[C@@](C)(O)CC1 [Example 391]
IC50 ([2]; Mus musculus, BaF3, 48 h): 6.5 nM
IC50 [3]: 0.22 nM

CCc1nc(C(N)=O)c(Nc2ccc(N3CCC(N4CCN(C)CC4)CC3)c(C)c2)nc1N[C@H]1CC[C@@](C)(O)CC1 [Example 392]
rate of regression (tumor volume) [4]: 28 (regression) %
IC50 ([2]; Mus musculus, BaF3, 48 h): 6.3 nM
IC50 [3]: 0.21 nM

CCc1nc(C(N)=O)c(Nc2ccc(N3CCN(CC4CC4)CC3)c(C(F)(F)F)c2)nc1N[C@H]1CC[C@H](O)CC1 [Example 399]
IC50 ([2]; Mus musculus, BaF3, 48 h): 11 nM
IC50 [3]: 0.94 nM

CCc1nc(C(N)=O)c(Nc2ccc(N3CCC(N(C)C)C3)c(C(F)(F)F)c2)nc1N[C@H]1CC[C@H](O)CC1 (stereo partly drawn) [Example 406]
IC50 ([2]; Mus musculus, BaF3, 48 h): 9.8 nM
IC50 [3]: 0.34 nM

CCc1nc(C(N)=O)c(Nc2ccc(N3CCN(C(C)C)CC3)c(C)c2)nc1N[C@H]1CC[C@H](O)CC1 [Example 426]
inhibition rate (tumor volume) [4]: 81%
IC50 ([2]; Mus musculus, BaF3, 48 h): 11 nM
IC50 [3]: 0.49 nM

CCOc1cc(Nc2nc(N[C@H]3CC[C@H](O)CC3)c(CC)nc2C(N)=O)ccc1N1CCC(N2CCN(C)CC2)CC1 [Example 459]
IC50 ([2]; Mus musculus, BaF3, 48 h): 8.1 nM
IC50 [3]: 0.26 nM

CCc1nc(C(N)=O)c(Nc2ccc(N3CCC(N4CCN(C)CC4)CC3)c(C)c2)nc1N[C@H]1CC[C@](C)(O)CC1 [Example 466]
rate of regression (tumor volume) [4]: 54 (regression) %
IC50 ([2]; Mus musculus, BaF3, 48 h): 9.3 nM
IC50 [3]: 0.93 nM

CCc1nc(C(N)=O)c(Nc2ccc(N3CCC(N4CCN(C)CC4)CC3)c(C)c2)nc1NC1CCC(O)(CC)CC1 (stereo not drawn) [Example 490]
IC50 ([2]; Mus musculus, BaF3, 48 h): 18 nM
IC50 [3]: 3.1 nM

CCc1nc(C(N)=O)c(Nc2ccc(N3CCC(N4CCN(C)CC4)CC3)c(C)c2)nc1NC1CCC(O)(CC)CC1 (stereo not drawn) [Example 491]
IC50 [2]: 16 nM
IC50 [3]: 2.8 nM

CCc1nc(C(N)=O)c(Nc2ccc(N3CCC(N4CCN(C)CC4)CC3)c(C)c2)nc1NC1CCC(O)(C(C)C)CC1 (stereo not drawn) [Example 493]
IC50 [2]: 19 nM
IC50 [3]: 2.6 nM

CCc1nc(C(N)=O)c(Nc2ccc(N3CCC(N4CCN(C)CC4)CC3)c(C)c2)nc1NC1CCC(O)(C(C)C)CC1 (stereo not drawn) [Example 494]
IC50 [2]: 42 nM
IC50 [3]: 4.1 nM

CCc1nc(C(N)=O)c(Nc2ccc(N3CCC(N4CCN(C)CC4)CC3)c(C)c2)nc1NC1CCOCC1 [Example 512]
IC50 ([2]; Mus musculus, BaF3, 48 h): 19 nM
IC50 [3]: 1.5 nM

Cc1cc(Nc2nc(N[C@H]3CC[C@H](O)CC3)c(Cl)nc2C(N)=O)ccc1N1CCC(N2CCN(C)CC2)CC1 [Example 538]
IC50 ([2]; Mus musculus, BaF3, 48 h): 7.7 nM
IC50 [3]: 2.3 nM

CCc1nc(C(N)=O)c(Nc2ccc(N3CCN(C)CC3)cc2)nc1NC1CCOCC1 [Example 545]
IC50 ([2]; Mus musculus, BaF3, 48 h): 25 nM
IC50 [3]: 11 nM

CCc1nc(C(N)=O)c(Nc2ccc(N3CCC(N4CCN(C)CC4)CC3)cc2)nc1NC1CCOCC1 [Example 546]
inhibition rate (tumor volume) [4]: 79%
IC50 ([2]; Mus musculus, BaF3, 48 h): 23 nM
IC50 [3]: 7.8 nM

CCc1nc(C(N)=O)c(Nc2ccc(N3CCC(N4CCN(C)CC4)CC3)c(OC)c2)nc1NC1CCOCC1 [Example 547]
IC50 ([2]; Mus musculus, BaF3, 48 h): 5.7 nM

CCc1nc(C(N)=O)c(Nc2ccc(N3CCN(C)CC3)c(F)c2)nc1NC1CCOCC1 [Example 550]
IC50 ([2]; Mus musculus, BaF3, 48 h): 39 nM
IC50 [3]: 11 nM

COc1cc(Nc2nc(NC3CCOCC3)c(C(C)C)nc2C(N)=O)ccc1N1CCN(C)CC1 [Example 553]
inhibition rate (tumor volume) [4]: 63%

CC(C)c1nc(C(N)=O)c(Nc2ccc(N3CCN(C)CC3)cc2)nc1NC1CCOCC1 [Example 554]
IC50 ([2]; Mus musculus, BaF3, 48 h): 14 nM
IC50 [3]: 4.5 nM

CCc1nc(C(N)=O)c(Nc2ccc(N3CCN(C4CCN(C)CC4)CC3)c(C)c2)nc1NC1CCOCC1 [Example 558]
rate of regression (tumor volume) [4]: 37 (regression) %
IC50 ([2]; Mus musculus, BaF3, 48 h): 16 nM
IC50 [3]: 2.2 nM
